According to US20040235882A1, “Amino-substituted imidazopyridines for the treatment of gastrointestial diseases” (priority 2001, published 2004):

System: pentagastrin-stimulated acid secretion of the perfused rat stomach
Assay: Secretion-inhibiting action on the perfused rat stomach (pentagastrin-stimulated acid secretion, in vivo)
Settings: anesthetized female CD rat, pentagastrin 1 μg/kg i.v. infusion, dose 3 μmol/kg i.d. (intraduodenal)
Source text: Testing of the secretion-inhibiting action on the perfused rat stomach
In Table A which follows, the influence of the compounds according to the invention on the pentagastrin-stimulated acid secretion of the perfused rat stomach after intraduodenal administration in vivo is shown.
The abdomen of anesthetized rats (CD rat, female, 200-250 g; 1.5 g/kg i.m. urethane) was opened after tracheotomy by a median upper abdominal incision and a PVC catheter was fixed transorally in the esophagus and another via the pylorus such that the ends of the tube just projected into the gastric lumen. The catheter leading from the pylorus led outward into the right abdominal wall through a side opening.
After thorough rinsing (about 50-100 ml), warm (37° C.) physiological NaCl solution was continuously passed through the stomach (0.5 ml/min, pH 6.8-6.9; Braun-Unita I). The pH (pH meter 632, glass electrode EA 147; φ=5 mm, Metrohm) and, by titration with a freshly prepared 0.01 N NaOH solution to pH 7 (Dosimat 665 Metrohm), the secreted HCl were determined in the effluent in each case collected at an interval of 15 minutes.
The gastric secretion was stimulated by continuous infusion of […] (=1.65 ml/h) of i.v. pentagastrin (left femoral vein) about 30 min after the end of the operation (i.e. after determination of 2 preliminary fractions). […]

Row | Structure (SMILES) | Inhibition of acid secretion
1 | Cc1nc2c3c(ccn2c1C)[C@@H](N1CCOCC1)[C@@H](O)CN3 [Example 9, (7R,8S,9R)-8-Hydroxy-2,3-dimethyl-7-(4-morphollno)-7,8,9,10-tetrahydroimidazo[1.2-h]-[1.7]naphthyridine] | 44%
2 | Cc1nc2c3c(ccn2c1C)[C@@H](N(C)C)[C@@H](O)CN3 [Example 19, (7R,8S,9R)-8-Hydroxy-7-(dimethylamino)-2,3-dimethyl-7,8,9,10-tetrahydroimidazo[1.2-h]-[1.7]naphthyridine] | 64%
